From patent US4400378A, “Pharmaceutical composition for the treatment of glaucoma” (priority 1981, dated 1983)
Structures can show the parent of a compound that is named as a salt.

How the values were obtained:
intraocular pressure = test: Intraocular pressure in rabbits after topical application to the eye (tonometric, Alcon Applanation Pneumotonograph); type: in vivo, white New Zealand rabbits; conditions: 2 drops (50 μl) per eye, rabbit
Description: B=2-Amino-6-allyl-5,6,7,8-tetrahydro-4H-thiazolo[4,5-d]azepine dihydrochloride. The tests were performed on white New Zealand rabbits of both sexes having a body weight of 2.5 to 3 kg. Each rabbit was used for 4 tests at intervals of at least 3 days between tests.
The intraocular pressure was measured tonometrically with an Alcon Applanation Pneumotonograph (APTG) calibrated for the human eye. By means of a factor obtained by comparison of the manometric values and APTG values in rabbits anesthetized with urethane, the so-called real pressures were determined. Moreover, before each measurement the cornea was anesthetized with 20 μl of an 0.05% oxybuprocain [2-(diethylamino)-ethyl-4-amino-3-butoxy-benzoate] solution.
The test compound was dropped at different concentrations directly into each eye, 2 drops (50 μl) per eye.

[1] = Oral acute toxicity (LD50) in the mouse; conditions: in vivo
Source text: Furthermore, the compounds of the formula I and their non-toxic, pharmacologically acceptable acid addition salts show good compatibility.

Compound	Reduction of the intraocular pressure in % after one hour (intraocular pressure; 0.3% concentration) [%]	Reduction of the intraocular pressure in % after one hour (intraocular pressure; 1.0% concentration) [%]	Reduction of the intraocular pressure in % after one hour (intraocular pressure; 3.0% concentration) [%]	LD50 [1] [mg/kg]	Values of the intraocular pressure in mmHg after one hour (intraocular pressure; 0.01% concentration) [mmHg]	Values of the intraocular pressure in mmHg after one hour (intraocular pressure; 0.03% concentration) [mmHg]	Values of the intraocular pressure in mmHg after one hour (intraocular pressure; concentration 0.3 (% not given)) [mmHg]	Values of the intraocular pressure in mmHg after one hour (intraocular pressure; concentration 1.0 (% not given)) [mmHg]
CCN1CCc2nc(N)oc2CC1 [Compound A, 2-Amino-6-ethyl-5,6,7,8-tetrahydro-4H-oxoazolo[4,5-d]azepine dihydrochloride]	-15	-21	-32	2.21	–	–	–	–
C=CCN1CCc2nc(N)sc2CC1.Cl.Cl [Compound B, 2-Amino-6-allyl-5,6,7,8-tetrahydro-4H-thiazolo[4,5-d]azepine dihydrochloride]	–	–	–	455	15	14.5	13	10
